SMILES strings stand for the structures.

Series [1] can be described thus: Volume of distribution at steady state in Sprague-Dawley rat at 1 mg/kg, iv by LC-MS/MS analysis. Conditions: in vivo, read-out: Vdss. The class given is ADME, organism-based.
Series [2] relates to Mus musculus. Nature of the series: Immunostimulatory activity in mouse B16/F10 cells implanted BALB/c mouse assessed as increase in activation of tumor-microenvironment mediated activated cytotoxic T cells in tumor by measuring CD3-positive cell population at 50 mg/kg, ig administered once daily via gavage for 15 days measured 24 hrs post-last dose by immunostaining based flow cytometry (reference value: 20.8%). The class given is functional. For orientation: A flow cytometer gives signals particle by particle.

The test system of a further series is A549. The series is described as follows: Cytotoxicity against human A549 cells assessed as reduction in cell viability measured after 48 hrs by MTT assay. It counts as functional, cell-based. Conditions: A549, 48 h. (Tetrazolium dyes change colour on reduction, which living cells bring about.)
The target of series [3] is Programmed cell death protein 1/Programmed cell death 1 ligand 1 (Homo sapiens) (UniProt Q15116+Q9NZQ7). Nature of the series: Ratio of EC50 for inhibition of human PD1/PDL1 protein-protein interaction in human PBMC-derived CD3-positive T cells co-cultured with human Hep3B cells expressing human PDL1/OS-8 assessed as increase in IFNgamma secretion to IC50 for inhibition of human PD1/PDL1 protein-protein interaction.

Series [4] relates to Mus musculus. Nature of the series: Immunostimulatory activity in mouse B16/F10 cells implanted BALB/c mouse assessed as increase in activation of tumor-microenvironment mediated activated cytotoxic T cells in tumor by measuring CD8-positive cell population at 100 mg/kg, ig administered once daily via gavage for 15 days measured 24 hrs post-last dose by immunostaining based flow cytometry (reference value: 2.2%). The class given is functional.

The subject of series [5] is Mus musculus. The series is described as follows: Effect on activated cytotoxic T cell population in mouse B16/F10 cells implanted […] mouse assessed as CD8-positive cell population in spleen at 50 mg/kg, ig administered once daily via gavage for 15 days measured 24 hrs post-last dose by immunostaining based flow cytometry (reference value: 0.383 %). The class given is organism-based. Conditions: in vivo, po.

A short description of series [6]: Half life in Sprague-Dawley rat at 1 mg/kg, iv by LC-MS/MS analysis. The class given is ADME, organism-based. To be noted: in vivo.
A short description of series [7]: AUC (0 to infinity) in Sprague-Dawley rat at 1 mg/kg, iv by LC-MS/MS analysis. It counts as ADME, organism-based. Details: dose 1 mg/kg, time infinity, route intravenous. Conditions: in vivo.
The nature of series [8]: AUC (0 to infinity) in Sprague-Dawley rat at 10 mg/kg, po by LC-MS/MS analysis. It counts as ADME, organism-based. Details: dose 10 mg/kg, time infinity, route oral. Conditions: in vivo.
Series [9] has as its system Mus musculus. Nature of the series: Effect on activated cytotoxic T cell population in mouse B16/F10 cells implanted […] mouse assessed as spleen cell population at 25 mg/kg, ig administered once daily via gavage for 15 days measured 24 hrs post-last dose by immunostaining based flow cytometry (reference value: 57.9 %). It counts as organism-based. Conditions: in vivo, po.

The test system of series [10] is Mus musculus. The series is described as follows: Immunostimulatory activity in mouse B16/F10 cells implanted […] mouse assessed as increase in activation of tumor-microenvironment mediated helper T cells in tumor by measuring CD3-positive cell population at 25 mg/kg, ig administered once daily via gavage for 15 days measured 24 hrs post-last dose by immunostaining based flow cytometry (reference value: 18.9%). It counts as functional.

Series [11] is described as follows: Clearance in Sprague-Dawley rat at 1 mg/kg, iv by LC-MS/MS analysis. It counts as ADME, organism-based. Conditions: in vivo.
In series [12] the test system is Mus musculus. The series is described as follows: Immunostimulatory activity in mouse B16/F10 cells implanted BALB/c mouse assessed as increase in activation of tumor-microenvironment mediated activated cytotoxic T cells in tumor by measuring melanoma cell population at 25 mg/kg, ig administered once daily via gavage for 15 days measured 24 hrs post-last dose by immunostaining based flow cytometry (reference value: 72.8%). The class given is functional.

Series [13] relates to Mus musculus. Nature of the series: Immunostimulatory activity in mouse B16/F10 cells implanted […] mouse assessed as increase in activation of tumor-microenvironment mediated helper T cells in tumor by measuring CD3-positive/CD4-positive cell population at 100 mg/kg, ig administered once daily via gavage for 15 days measured 24 hrs post-last dose by immunostaining based flow cytometry (reference value: 6.15%). It counts as functional.

The test system of series [14] is Mus musculus. The series is described as follows: Immunostimulatory activity in mouse B16/F10 cells implanted BALB/c mouse assessed as increase in activation of tumor-microenvironment mediated helper T cells in tumor by measuring CD3-positive cell population at 50 mg/kg, ig administered once daily via gavage for 15 days measured 24 hrs post-last dose by immunostaining based flow cytometry (reference value: 18.9%). The class given is functional.

For series [15], the system named is Mus musculus. The series is described as follows: Effect on activated cytotoxic T cell population in mouse B16/F10 cells implanted […] mouse assessed as CD3-positive cell population in spleen at 50 mg/kg, ig administered once daily via gavage for 15 days measured 24 hrs post-last dose by immunostaining based flow cytometry (reference value: 27.5 %). Conditions: in vivo, po. The class given is organism-based.

Series [16] relates to Mus musculus. The series is described as follows: Immunostimulatory activity in mouse B16/F10 cells implanted […] mouse assessed as increase in activation of tumor-microenvironment mediated activated cytotoxic T cells in tumor by measuring melanoma cell population at 50 mg/kg, ig administered once daily via gavage for 15 days measured 24 hrs post-last dose by immunostaining based flow cytometry (reference value: 72.8%). The class given is functional.

The subject of series [17] is Mus musculus. The series is described as follows: Effect on spleen helper T cell population in mouse B16/F10 cells implanted […] mouse assessed as CD3-positive cell population at 25 mg/kg, ig administered once daily via gavage for 15 days measured 24 hrs post-last dose by immunostaining based flow cytometry (reference value: 14.7%). It counts as organism-based. Conditions: in vivo, po.

Series [18] in a line: Toxicity in Sprague-Dawley rat at 10 mg/kg, po. It counts as organism-based. Conditions: in vivo.
A short description of series [19]: Toxicity in mouse B16/F10 cells implanted […] mouse assessed as increase in body weight at 25 to 100 mg/kg, ig administered once daily via gavage for 15 days measured during compound dosing. The class given is organism-based. Conditions: in vivo, po, 360 h.
For series [20], the system named is Mus musculus. The series is described as follows: Effect on spleen helper T cell population in mouse B16/F10 cells implanted […] mouse assessed as CD4-positive cell population at 100 mg/kg, ig administered once daily via gavage for 15 days measured 24 hrs post-last dose by immunostaining based flow cytometry (reference value: 1.47 %). Conditions: in vivo, po. The class given is ADME, organism-based.

In series [21] the test system is Mus musculus. Nature of the series: Immunostimulatory activity in mouse B16/F10 cells implanted BALB/c mouse assessed as increase in activation of tumor-microenvironment mediated helper T cells in tumor by measuring melanoma cell population at 50 mg/kg, ig administered once daily via gavage for 15 days measured 24 hrs post-last dose by immunostaining based flow cytometry (reference value: 70%). The class given is functional.

The subject of series [22] is Mus musculus. The series is described as follows: Immunostimulatory activity in mouse B16/F10 cells implanted BALB/c mouse assessed as increase in activation of tumor-microenvironment mediated helper T cells in tumor by measuring CD3-positive/CD4-positive cell population at 25 mg/kg, ig administered once daily via gavage for 15 days measured 24 hrs post-last dose by immunostaining based flow cytometry (reference value: 6.15%). It counts as functional.

The target of series [23] is Programmed cell death protein 1/Programmed cell death 1 ligand 1 (Homo sapiens, UniProt Q9NZQ7). The series is described as follows: Inhibition of human C-terminal Ig-Fc-tagged PD1 (Leu25 to Gln167 residues) expressed in HEK293 cells/human C-terminal epitope-His-tagged PDL1 (Phe19 to Arg238 residues) expressed in HEK293 cells protein-protein interaction preincubated for 15 mins with PDL1 followed by PD1 addition and measured after 15 mins by APC-labeled anti-His antibody/Eu-labeled anti-human IgG based HTRF assay. It counts as cell-based.
Sequence of Programmed cell death protein 1/Programmed cell death 1 ligand 1 (Q15116 whole entry): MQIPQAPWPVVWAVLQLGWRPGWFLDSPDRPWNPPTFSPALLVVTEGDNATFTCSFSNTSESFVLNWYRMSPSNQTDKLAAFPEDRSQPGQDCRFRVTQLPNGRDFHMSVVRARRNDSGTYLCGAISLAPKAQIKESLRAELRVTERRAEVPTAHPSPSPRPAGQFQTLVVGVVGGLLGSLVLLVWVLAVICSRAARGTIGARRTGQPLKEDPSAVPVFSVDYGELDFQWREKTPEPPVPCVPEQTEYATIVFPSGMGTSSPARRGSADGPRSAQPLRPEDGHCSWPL
Sequence of Programmed cell death protein 1/Programmed cell death 1 ligand 1 (Q9NZQ7 whole entry): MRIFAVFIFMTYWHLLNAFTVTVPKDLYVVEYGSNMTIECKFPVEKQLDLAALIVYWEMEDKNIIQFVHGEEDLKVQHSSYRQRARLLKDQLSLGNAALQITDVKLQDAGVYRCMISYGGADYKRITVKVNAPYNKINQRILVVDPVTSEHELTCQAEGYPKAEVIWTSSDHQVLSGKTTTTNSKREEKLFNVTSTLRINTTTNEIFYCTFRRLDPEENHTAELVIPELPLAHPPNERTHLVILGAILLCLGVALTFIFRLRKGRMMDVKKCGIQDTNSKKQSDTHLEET

With `Cc1c(COc2cc(OCc3cccc(C#N)c3)c(CNC(C)(C)C(=O)O)cc2Cl)cccc1-c1ccccc1`, the Vd in series [1] was 2.1 L/kg. For the same compound, the Activity is 14.5% in the series with Mus musculus [2]; 13.5% in the series with Mus musculus [4]; 0.374% in the series with Mus musculus [5]; 62.7% in the series on Mus musculus [9]; 15% in the series on Mus musculus [10]; 59.4% in the series with Mus musculus [12]. Also, the Activity is 13.8% with Mus musculus [13]; 17.7% in the series with Mus musculus [14]; 28.8% in the series on Mus musculus [15]; 64.9% with Mus musculus [16]; 13.8% with Mus musculus [17]; “Non-Toxic” in series [18]. In addition, the Activity result in series [19] is “Toxic”; with Mus musculus [20] it was 1.78%; in the series with Mus musculus [21], 68.4%; in the series on Mus musculus [22], 15.4%. For the same compound, the IC50 was greater than 10 µM with A549 and 0.0125 µM in series [23]. The Ratio in series [3] came out at 240. In [6], this compound gave a half-life of 1.5 h. Moreover, the AUC(0-inf) in [7] came out at 1050 ng·h/mL; in [8] it was 520 ng·h/mL. In addition, the clearance in [11] was 15 mL/min/kg.

By IC50 is commonly meant the point on the concentration scale where inhibition reaches its midpoint. What is called half-life is how long it takes for the measured level to halve. A higher half-life goes with slow decline. In general, AUC(0-inf) refers to the area under the concentration-time curve extrapolated to infinity. A lower AUC(0-inf) goes with less exposure. Usually clearance stands for the rate of elimination divided by the concentration.

(Values after ChEMBL document CHEMBL4619786, “Discovery of Novel Resorcinol Dibenzyl Ethers Targeting the Programmed Cell Death-1/Programmed Cell Death-Ligand 1 Interaction as Potential Anticancer Agents” (J Med Chem, 2020).)
